# From article PMC8298375 (Naunyn-Schmiedeberg's Archives of Pharmacology, 2021)
# Like-named read-outs stand apart in the source and are kept apart here.
# Assays:
# Assay type in all cases: in vivo, Wistar rats
# [1] = Pharmacokinetic study in scopolamine-induced amnesic rats (plasma); conditions: for Absolute F: absolute bioavailability; for Cl_F_obs: clearance; for DN Cmax: dose-normalised Cmax; for Vz_F_obs: volume of distribution
# Description: Samples were then centrifuged at 10,000 rpm for 5 min, and plasma was stored at − 70 °C until analysis.
# Briefly, to an aliquot of 100 µL of rat plasma, 10 µL of IS (1 µg/mL) was added and vortexed for 30 s. Then, 1 mL of TBME tertiary methyl butyl ether) was added and vortexed for 10 min, thereafter centrifuged at 10,000 rpm for 5 min. From the supernatant, 0.9 mL of organic solvent was aspirated and evaporated in a turbo evaporator (Zymark, Hopkinton, MA, USA) at 50 ± 2 °C under the stream of nitrogen. The dried residue was reconstituted with 150 µL of mobile phase, and 50 µL was injected for the HPLC analysis. A full validation according to the US-FDA guidelines was performed in rat plasma. Plasma samples were analyzed by previously validated HPLC with fluorescence detection method (Arumugam [2011]).
# HPLC analysis was carried out on Shimadzu LC-20AD Prominence (Shimadzu Corporation, Kyoto, Japan) equipped with LC-20AD pump, RF-10A-XL fluorescence detector, column oven (CTO-10AS VP), autosampler SIL-20AC HT, and LC solution version 1.24 SP1. The column oven temperature was maintained at 25 °C. The chromatographic separation was achieved by Intersil, ODS-3 V, C18 (250 × 4.6 mm, 5 µm) column (GL Sciences Inc., Japan). Isocratic elution was performed with ammonium acetate buffer (20 mM, pH 4.5) and acetonitrile 74:26 (v/v) as mobile phase. The flow rate was maintained at 1 mL/min, and the injection volume was 50 µL. Fluorimetric detection was used, and excitation and emission wavelength were 220 nm and 293 nm, respectively. The sensitivity of the detector was “medium”, and the response kept at 3. Venlafaxine (IS) was prepared separately in methanol to yield primary standard solutions with a concentration of 1 mg/mL.
# The pharmacokinetic parameters were calculated using non-compartmental analysis, PK solution 2.1software (Summit Research Services, Montrose, Colorado, USA). The area under the curve (AUC) from zero to infinity is calculated using the trapezoidal method. The terminal elimination rate constant (β) was obtained by plotting log-linear concentration versus time; the corresponding half-life (t1/2β) was calculated by 0.693/β. […] The clearance (CL) and volume of distribution (Vd) were calculated as follows: CL=Dose/AUC0-∞,Vd(apparent)=CL/β
# [2] = test system: ICV colchicine-induced dementia rats; experiment: Locomotor activity (photoactometer), colchicine-induced dementia; conditions: colchicine model, Mean ± SEM, photo beam counts for 5 min
# Description: In the chronic model, the rats were trained for MWM and PAT tasks for the first 4 days followed by intracerebroventricular (i.c.v.) administration of colchicine on day 6. After establishing dementia on day 10 of the colchicine administration, the drug treatment was initiated from day 11 to 24. The effects of different drug treatments on dementia were assessed on days 14 and 21. On these particular days, the swim test was performed 15 min after the administration of different treatments and escape latencies; residence time and peripheral swim time were recorded (Nampoothiri [2017]). The retention trials for PAT on day 17 and 23 were performed on days 17 and 23, 15 min after the administration of the drug.
# On the 6th day, surgery was performed as described (Bokare et al. [2018]). Rat was anesthetized with sodium pentobarbital (45 mg/kg, i.p.) and positioned in stereotaxic apparatus. The head was positioned in a frame, and a midline sagittal incision was made in the scalp. […]
# Locomotor activity was assessed in animals using a digital photoactometer (INCO, India) which contains a cage that is 30-cm long and 30-cm deep with a wire mesh at the bottom. […] Then, the ambulatory movements were recorded for 5 min and expressed in terms of total photo beam counts for 5 min per animal.
# [3] = test system: scopolamine-induced amnesia rats; experiment: Morris water maze test, scopolamine-induced amnesia (acute model); conditions: scopolamine 1 mg/kg i.p., Mean ± SEM; for Escape latency: test 15 min after treatment
# Description: In the acute model, the rats were trained for Morris water maze (MWM) and passive avoidance test (PAT) tasks in the first 4 days. On the 5th day, 30 min after scopolamine administration, respective treatments were given to all the groups. Fifteen minutes thereafter, the test trials were conducted in MWM and PAT.
# A modified Morris water maze test was used (Nampoothiri [2017]). The pool was positioned in the middle of a dimly lit testing room with distant visual clues that could be used by rats for spatial orientation. The maze consisted of a circular water pool (140 × 45 cm) divided into four equally sized quadrants (NE, SE, SW, and NW) by two imaginary diagonal lines running across the center of the pool. The pool was filled with water maintained at a temperature of 23 ± 2 °C. In the NE quadrant (target quadrant) equidistant from the center and edge of the pool, a platform of 25-cm height and 10-cm diameter was invisibly placed submerged 1 cm below the water surface. Rats were gently placed in each quadrant facing the wall and trained to locate the hidden black platform, and the trial was terminated when the rat reached the platform or after 60 s. Accordingly, rats were subjected to one session of four trials per day for four consecutive days. All rats were left on the platform for 30 s and then removed and towel dried. Inter-trial interval was kept a constant 180 s throughout the study. In the probe trial, platform was removed, and rats were allowed to swim for a 60-s trial period. Data was collected in the form of escape latencies to find the platform; percent of time spent over the target quadrant.
# [4] = Wistar, rat, oral (ORSM), other: intranasal (INRSM)
smiles,measurement,setting,value
"CCN(C)C(=O)Oc1cccc([C@H](C)N(C)C)c1 [ORSM, rivastigmine]",MRT,"[1]; Wistar, rat, oral (ORSM), other: intranasal (INRSM), read-out: MRT (converted)",27.6 min
same,clearance,"[1]; Wistar, rat, oral, 2.5 mg/kg, read-out: clearance rate",1500 ± 760 mL/min
same,Vd,"[1]; Wistar, rat, oral, 2.5 mg/kg, read-out: volume of distribution",29.2 ± 14.3 L/kg
same,Tmax,"[1]; Wistar, rat, po",15 min
same,half-life,"[1]; Wistar, rat, po",13.5 ± 5.79 min
same,k el,"[1]; Wistar, rat, po",0.000857 s⁻¹
same,AUC(0-inf),"[1]; Wistar, rat, po, 2.5 mg/kg",27.7 ng·h/mL
same,Cmax,"[1]; Wistar, rat, po, 2.5 mg/kg",56.3 ± 27.1 ng/mL
same,Absolute F,[1],4.39 ± 1.82%
same,Absolute F,[1]; listed as oral rivastigmine,4.39 ± 1.82%
same,Cl_F_obs,[1],1502.59 ± 763.25 mL/min
same,DN Cmax,[1],22.51 ± 10.82 ng/mL
same,Vz_F_obs,[1],29.23 ± 14.35 L
same,Score on actophotometer,[2]; listed as COL + ORSM,240.00 ± 19.54
same,Escape latency,[3]; listed as SCP + ORSM,3.89 ± 0.44 s
"CCN(C)C(=O)Oc1cccc([C@H](C)N(C)C)c1 [INRSM, rivastigmine]",MRT,[1],32.12 ± 16.46 min
same,Cmax,"[1]; Wistar, rat, inhaled or intranasal, 2 mg/kg",994 ± 471 ng/mL
same,Tmax,[1]; [4],5 min
same,half-life,[1]; [4],30.5 ± 10.8 min
same,k el,[1]; [4],0.000378 s⁻¹
same,AUC(0-inf),"[1]; Wistar, rat, other: intranasal, 2 mg/kg",330 ng·h/mL
same,Absolute F,[1],65.44 ± 14.57%
same,Cl_F_obs,[1],100.95 ± 36.47 mL/min
same,DN Cmax,[1],497.23 ± 235.52 ng/mL
same,Vz_F_obs,[1],4.45 ± 1.72 L
same,Score on actophotometer,[2]; listed as COL + INRSM,265.66 ± 17.95
same,Peripheral swim time,[3]; listed as SCP + INRSM,34.22 ± 0.74 s
same,Escape latency,[3]; listed as SCP + INRSM,3.11 ± 0.36 s
